Reference: paper PMC6675714 (Cancer Medicine, 2019)
Values joined by “and” are separate entries in the source; they are usually repeats but may differ in a detail not shown here. Equal values may be shown once. “Also recorded” adds a separate entry of the source.

Tests used:
[1] = Plasma pharmacokinetics after single ip injection (Ru by ICP‐MS); assay type: in vivo
Protocol: Blood was collected from submandibular vein using a heparin coated glass capillary into heparinized blood collection tubes on ice at time intervals of 1, 2, 6, 12, 24, 48, and 72 hours post injection. Plasma was harvested by centrifuging blood samples at 2800 rpm for 15 minutes at 4°C and stored frozen at − 80°C until analysis. Similarly, kidney, liver, and tumor were harvested after final time point, weighed, and stored into glass vials. One mL of deionized water was added to each tissue sample, subjected to ultrasonic homogenization at 15 W power for 1 minute, followed by lyophilization.
Plasma and tissue concentrations of Ru and Au were measured using inductively coupled plasma–mass spectrometry (ICP‐MS). Plasma (10 μL) or tissue samples were transferred into glass vials, and 1 mL of a 75:25 mixture of nitric acid (16 N) and hydrochloric acid (12 N) was added to each vial. The mixture was then heated at 90°C for 5 hours. After cooling to room temperature, the samples were centrifuged to remove debris if any. All samples were then mixed with 40 ppb of indium internal standard and analyzed using a Thermo Scientific XSERIES 2 ICP‐MS coupled with ESI PC3 Peltier cooled spray chamber, SC‐FAST injection loop, and SC‐4 autosampler. All the elements were measured using He/H2 collision‐reaction mode.
Pharmacokinetic parameters were obtained from the plasma concentration–time profiles by noncompartmental analysis using Phoenix WinNonlin 6.4 version 6.4 (Pharsight Corporation, Mountain View, CA). The pharmacokinetic parameters quantified were the maximum plasma drug concentration (Cmax), the time to reach Cmax (Tmax), the area under the plasma concentration–time curve from 0 hour to last measurable concentration (AUClast), elimination rate constant (ke), plasma half‐life (t1/2), apparent total clearance of the drug from plasma (Cl/F), and apparent volume of distribution (Vd/F). Concentrations of ruthenium and gold in liver, kidney, and tumors were also determined.

[2] = Histopathology of organs and tissues after the trial; assay type: in vivo, NOD.CB17‐Prkdc scid/J mice; set-up: key to Histopathological finding: Lungs / Histopathological finding: Thymus / Histopathological finding: Kidneys / Histopathological finding: Gallbladder / Histopathological finding: Stomach / Histopathological finding: Cecum / Histopathological finding: Colon / Histopathological finding: Mesenteric lymph node / Histopathological finding: Salivary glands / Histopathological finding: Submandibular lymph node / Histopathological finding: Uterus / Histopathological finding: Cervix / Histopathological finding: Vagina / Histopathological finding: Testes/epididymis / Histopathological finding: Prostate / Histopathological finding: Seminal vesicles / Histopathological finding: Urinary bladder / Histopathological finding: Adrenals / Histopathological finding: Ovaries / Histopathological finding: Oviducts / Histopathological finding: Trachea / Histopathological finding: Esophagus / Histopathological finding: Thyroid / Histopathological finding: Parathyroid / Histopathological finding: Mammary glands / Histopathological finding: Bones (femur, tibia, sternum, vertebrae) / Histopathological finding: Stifle joint / Histopathological finding: Skeletral muscles (hind limb, spine) / Histopathological finding: Nerves (hind limb, spine) / Histopathological finding: Spinal cord / Histopathological finding: Oral cavity / Histopathological finding: Teeth / Histopathological finding: Nasal cavity / Histopathological finding: Eyes / Histopathological finding: Harderian gland / Histopathological finding: Bones (skull) / Histopathological finding: Pituitary / Histopathological finding: Brain / Histopathological finding: Ears / Histopathological finding: Heart: N: Normal
Description: At the end of the intervention trial, female and male NOD.CB17‐Prkdc scid/J mice bearing subcutaneous Caki‐1 tumors were euthanized, blood was collected by intracardiac puncture and the carcasses were perfused with 4% PFA. Lung, kidney, heart, spleen, lymphatic tissue were collected, mounted in paraffin, sectioned and stained by Hemotoxilyn & Eosin. Samples were imaged at 20× under light microscope for analysis.

[3] = test system: Caki‐1 xenograft tumors; assay: Cell proliferation (Ki67) and apoptosis (cleaved caspase 3) in tumor sections; assay type: in vivo, NOD.CB17‐Prkdc SCID/J mice; conditions: tumors at 21‐day trial endpoint
Protocol: Tissue sections were prepared by embedding in OCT (Thermo Fisher Scientific, Waltham, MA) followed by freezing at − 80°C. Vessel leakiness was evaluated following tail‐vein injection of 100 μL of Dextran Texas Red (Invitrogen). Vessel integrity was assessed after tail‐vein injection of 50 μL of lectin labelled with FITC (Vector Labs, Burlingame, CA). Apoptotic cells were visualized using an anti‐rabbit cleaved caspase 3 primary antibody (Cell Signaling Technology, Danvers, MA) and an goat‐anti‐rabbit Alexa Fluor 594 secondary antibody (Cell Signaling Technology); proliferating cells were visualized using an anti‐mouse Ki67 primary antibody (Cell Signaling Technology) and an goat‐anti‐mouse Alexa Fluor 488 secondary antibody (Cell Signaling Technology); DAPI containing ProLong Gold Antifade Mounting Medium (Cell Signaling Technology) was used to visualize the nuclei and mount the slide.
For all histological analyses, tumors from treated mice were compared to those of the vehicle control of the intervention trial. Samples from 4 mice per treatment group were analyzed. Stained samples were imaged at 20× magnification (ZEISS LSM 700). Cell proliferation and apoptosis were quantified one channel at a time using ImageJ (NIH, open access software) and were calculated as the percentage of Ki67 positive or cleaved caspase 3 positive cells per DAPI positive cells per field of view.

[Cl2(p‐cymene)Ru(μ‐dppm)Au(IMes)]ClO4 [RANCE‐1]
Time to reach steady state ([1]; 10 mg/kg ip): 203.8 ± 93.4 h
AUC0‐72h ([1]; 10 mg/kg single ip, plasma): 792.9 ± 270.3 µg·h/mL
Cl/F ([1]; 10 mg/kg single ip, plasma): 0.1667 ± 0.0525 mL/min/kg
Cmax ([1]; 10 mg/kg single ip, plasma): 22600 ± 2580 ng/mL
Vd/F ([1]; 10 mg/kg single ip, plasma): 0.6121 ± 0.429 L/kg
t1/2 ([1]; 10 mg/kg single ip, plasma): 40.8 h and 40 h and 40.77 ± 18.67 h
Tmax ([1]; 10 mg/kg single ip, plasma Ru): 10.00 ± 3.46 h
Cminss ([1]; predicted, based on a dose of 10 mg/kg every 72 h): 7170 ± 3910 ng/mL
Histological changes in liver, spleen, or kidney tissue ([2]; H&E, end of the 21 day efficacy trial): does not induce histological changes
Histopathological finding: Adrenals ([2]; end of 21 day trial): N
Histopathological finding: Bone marrow (femur, tibia, sternum, vertebrae) ([2]; end of 21 day trial): Moderate diffuse granulocytic hyperplasia; Moderate diffused Erythroid hypoplasia.
Histopathological finding: Bones (femur, tibia, sternum, vertebrae) ([2]; end of 21 day trial): N
Histopathological finding: Bones (skull) ([2]; end of 21 day trial): N
Histopathological finding: Brain ([2]; end of 21 day trial): N
Histopathological finding: Cecum ([2]; end of 21 day trial): N
Histopathological finding: Cervix ([2]; end of 21 day trial): N
Histopathological finding: Colon ([2]; end of 21 day trial): N
Histopathological finding: Duodenum, jejunum, ileum ([2]; end of 21 day trial): Mild peritonitis and serositis, neutrophilic and histiocytic, multifocal.
Histopathological finding: Ears ([2]; end of 21 day trial): N
Histopathological finding: Esophagus ([2]; end of 21 day trial): N
Histopathological finding: Eyes ([2]; end of 21 day trial): N
Histopathological finding: Gallbladder ([2]; end of 21 day trial): N
Histopathological finding: Harderian gland ([2]; end of 21 day trial): N
Histopathological finding: Heart ([2]; end of 21 day trial): N
Histopathological finding: Kidneys ([2]; end of 21 day trial): N
Histopathological finding: Liver ([2]; end of 21 day trial): Minimal extramedullary hematopoiesis. Minimal hepatocyte hypertrophy. Mild vacuolar change (microvesicular)
Histopathological finding: Lungs ([2]; end of 21 day trial): N
Histopathological finding: Mammary glands ([2]; end of 21 day trial): N
Histopathological finding: Mesenteric lymph node ([2]; end of 21 day trial): N
Histopathological finding: Nasal cavity ([2]; end of 21 day trial): N
Histopathological finding: Nerves (hind limb, spine) ([2]; end of 21 day trial): N
Histopathological finding: Oral cavity ([2]; end of 21 day trial): N
Histopathological finding: Ovaries ([2]; end of 21 day trial): N
Histopathological finding: Oviducts ([2]; end of 21 day trial): N
Histopathological finding: Pancreas ([2]; end of 21 day trial): Minimal peritonitis, neutrophilic and histiocytic, multifocal
Histopathological finding: Parathyroid ([2]; end of 21 day trial): N
Histopathological finding: Pituitary ([2]; end of 21 day trial): N
Histopathological finding: Prostate ([2]; end of 21 day trial): N
Histopathological finding: Salivary glands ([2]; end of 21 day trial): N
Histopathological finding: Seminal vesicles ([2]; end of 21 day trial): N
Histopathological finding: Skeletral muscles (hind limb, spine) ([2]; end of 21 day trial): N
Histopathological finding: Spinal cord ([2]; end of 21 day trial): N
Histopathological finding: Spleen ([2]; end of 21 day trial): Mild increase in extramedullary hematopoiesis with granulocyte hyperplasia.
Histopathological finding: Stifle joint ([2]; end of 21 day trial): N
Histopathological finding: Stomach ([2]; end of 21 day trial): N
Histopathological finding: Submandibular lymph node ([2]; end of 21 day trial): N
Histopathological finding: Teeth ([2]; end of 21 day trial): N
Histopathological finding: Testes/epididymis ([2]; end of 21 day trial): N
Histopathological finding: Thymus ([2]; end of 21 day trial): N
Histopathological finding: Thyroid ([2]; end of 21 day trial): N
Histopathological finding: Trachea ([2]; end of 21 day trial): N
Histopathological finding: Urinary bladder ([2]; end of 21 day trial): N
Histopathological finding: Uterus ([2]; end of 21 day trial): N
Histopathological finding: Vagina ([2]; end of 21 day trial): N
Adverse effects / pathological complications on histological evaluation ([2]; forty‐seven organ and tissue types, after 21 days of treatment): no signs of pathological complications; also recorded: no significant adverse effects
Apoptotic cells (cleaved caspase 3 positive) per DAPI positive cells [3]: 1.6%
Proliferating cells (Ki67 positive) per DAPI positive cells [3]: 2%
Reduction of tumor cell proliferation vs Veh [3]: 18 fold
Decrease in apoptosis ([3]; vs Vehicle): 0.4%
Decrease in cell proliferation ([3]; vs Vehicle): 36%
